According to patent US7829586B2, “Aryl-substituted nitrogen-containing heterocyclic compounds” (Banyu Pharmaceutical Co., Ltd., priority 2005, dated 2010):

Columns and labels:
nociceptin receptor ORL1 [1] = target: T1, nociceptin receptor ORL1 (Homo sapiens, UniProt P41146); test: Nociceptin receptor binding inhibition assay ([125I]Tyr14-Nociceptin, CHO/ORL1 membrane fractions, SPA); design: expressed in transfected cells; membrane fractions; details: CHO/ORL1 membrane fraction, 50 pM [125I]Tyr14-Nociceptin, 37° C., 60 minutes
Protocol: Nociceptin Receptor Binding Inhibition Assay
A cDNA that codes for a human nociceptin receptor gene was cloned into an expression vector pCR3 (by Invitrogen) to prepare pCR3/ORL1. Next, pCR3/ORL1 was transfected in CHO cells using a transfectam (by Nippongene) to obtain a stable expression strain (CHO/ORL1 cells) having resistance against 1 mg/ml G418. Membrane fractions were prepared from this stable expression strain to carry out a receptor binding assay. 11 μg of the membrane fraction, 50 pM [^125I]Tyr^14-Nociceptin (by Amersham Pharmacia), 1 mg of wheatgerm agglutinin SPA beads (PVT based, by Amersham Pharmacia) and each test compound were suspended in an NC buffer (50 mM Hepes, 10 mM sodium chloride, 1 mM magnesium chloride, 2.5 mM calcium chloride, 0.1% BSA, 0.025% bacitracin, pH 7.4) and incubated at 37° C. for 60 minutes, and then the radioactivity of the culture was determined. The binding activity to the nociceptin receptor was indicated by the 50% inhibition concentration (IC50 value) of [^125I]Tyr^14-Nociceptin binding by each test compound.

nociceptin receptor ORL1 [2] = target: T1, nociceptin receptor ORL1; test: Antagonism against nociceptin-elicited G protein activation (GTPγ[35S] binding, CHO/ORL1 membranes); format: biochemical; design: expressed in transfected cells; membrane preparation; details: CHO/ORL1 membrane, 50 nM nociceptin, 200 pM GTPγ[35S], 25° C., 150 minutes
Protocol: Antagonism Against Nociceptin-Elicited G Protein Activation
CHO cells which stably expressed a nociceptin receptor ORL1 were used to investigate the action of each test compound against nociceptin-elicited G protein activation. A membrane prepared from the CHO/ORL1 cells, 50 nM nociceptin, 200 pM GTPγ[^35S] (by NEN), 1.5 mg of wheatgerm agglutinin SPA beads (by Amersham Pharmacia) and each test compound were mixed in a GDP buffer (20 mM Hepes, 100 mM sodium chloride, 10 mM magnesium chloride, 1 mM EDTA, 5 μM GDP, pH 7.4) and incubated at 25° C. for 150 minutes, and then the radioactivity was determined. The antagonism against the nociceptin-elicited G protein activation was shown by the 50% inhibition concentration (IC50 value) of the test compound against GTPγ[^35S] binding.

T1 sequence (P41146 whole entry): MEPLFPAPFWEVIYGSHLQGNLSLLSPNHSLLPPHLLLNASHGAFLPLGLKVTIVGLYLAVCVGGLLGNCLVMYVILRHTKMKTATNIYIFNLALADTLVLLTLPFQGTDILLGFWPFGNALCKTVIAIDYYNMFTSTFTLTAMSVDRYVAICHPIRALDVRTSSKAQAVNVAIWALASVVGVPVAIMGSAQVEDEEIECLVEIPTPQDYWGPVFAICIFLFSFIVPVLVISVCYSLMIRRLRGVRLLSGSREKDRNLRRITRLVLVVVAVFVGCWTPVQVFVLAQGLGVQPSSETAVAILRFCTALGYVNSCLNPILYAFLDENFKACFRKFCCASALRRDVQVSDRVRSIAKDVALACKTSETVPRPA

IC50 (nociceptin receptor ORL1 [1]) [nM]	IC50 (nociceptin receptor ORL1 [2]) [nM]	SMILES
8.2	4.6	Cc1c(CN[C@H]2CC[C@@H](F)C2)nn(CCC#N)c1-c1cc(F)cc(F)c1 [Example 13, 1-(2-Cyanoethyl)-5-(3,5-difluorophenyl)-3-[(1S,3R)-3-fluorocyclopentylamino]methyl-4-methyl-1H-pyrazole]
0.92	0.61	Cc1ncc(-c2c(C)c(CN[C@H]3CC[C@@H](F)C3)nn2C(C)C)cc1F [Example 2, 3-[(1S,3R)-3-fluorocyclopentylamino]methyl-5-(5-fluoro-6-methylpyridin-3-yl)-1-isopropyl-4-methyl-1H-pyrazole]
0.62	0.47	COCc1c(CN[C@H]2CC[C@@H](F)C2)n[nH]c1-c1cc(F)cc(F)c1 [Example 19, 5-(3,5-Difluorophenyl)-3-[(1S,3R)-3-fluorocyclopentylamino]methyl-4-methoxymethyl-1H-pyrazole]
1.1	0.6	COCc1c(CN[C@H]2CC[C@@H](OC)CC2)n[nH]c1-c1cc(F)cc(F)c1 [Example 34, 5-(3,5-Difluorophenyl)-3-(cis-4-methoxycyclohexylamino)methyl-4-methoxymethyl-1H-pyrazole]
6.8	6	CCc1c(CN[C@H]2CC[C@@H](F)CC2)nc(C)n1-c1cc(F)cc(F)c1 [Example 38, 1-(3,5-Difluorophenyl)-4-(cis-4-fluorocyclohexylamino)methyl-5-ethyl-2-methyl-1H-imidazole]
7.5	7.5	Cc1c(CN[C@H]2CC[C@@H](F)C2)n[nH]c1-c1cc(F)cc(F)c1 [Example 8, 5-(3,5-Difluorophenyl)-3-[(1S,3R)-3-fluorocyclopentylamino]methyl-4-methyl-1H-pyrazole]
